{"source": "patent US20230094471A1", "about": "“CYTOTOXIC BIS-BENZODIAZEPINE DERIVATIVES AND CONJUGATES THEREOF WITH CELL-BINDING AGENTS FOR INHIBITING ABNORMAL CELL GROWTH OR FOR TREATING PROLIFERATIVE DISEASES” (priority 2019, published 2023)", "key": {"[1]": {"tested_on": "KB (cervical carcinoma)", "assay": "In vitro cytotoxicity assay (WST-8), KB cells", "conditions": "Homo sapiens, 120 h, read-out: IC50 values for free cytotoxic compounds, KB", "description": "(§1) The following cell lines were used for the studies: KB (cervical carcinoma, ATCC), NCI-H2110 (Non Small Cell Lung Carcinoma, ATCC), Namalwa (Burkitt's lymphoma, ATCC), and T47D (breast epithelial cancer, ATCC). The cells were maintained and plated for the cytotox experiments in media recommended by the manufacturers. Cells were plated in the 96-well flat bottom plates at a seeding density of 1,000 cells per well (KB, Namalwa) or 2,000 cell per well (NCI H2110, T47D). […] To determine specificity of cytotoxic activity of the conjugates an excess of unconjugated antibody was added to a separate set of diluted conjugates (+block samples, IC50 table). The plates were incubated at 37° C., 5% CO2 for either 4 days (T47D cells) or 5 days (KB, NCI H2110 cells). Alamar blue assay (Invitrogen) was used to determine viability of T47D cells, and WST-8 assay (Donjindo Molecular Technologies, Inc.) was applied for viability of KB, NCI H2110, Namalwa cells. The assays were performed in accordance with the manufacturer's protocols. Killing curves and IC50 were generated using a sigmoidal dose-response nonlinear regression curve fit (GraphPad Software Inc.)."}, "[2]": {"tested_on": "Namalwa (Burkitt's lymphoma)", "assay": "In vitro cytotoxicity assay (WST-8), Namalwa cells", "conditions": "read-out: IC50 values for free cytotoxic compounds, Namalwa", "description": "as §1"}, "[3]": {"conditions": "Phase I clinical evaluation (Hochhauser et al., 2009); cited from earlier work"}}}
{"smiles": "COc1cc2c(cc1OCc1cccc(COc3cc4c(cc3OC)C(=O)N3c5ccccc5C[C@H]3CN4)c1)N=C[C@@H]1Cc3ccccc3N1C2=O", "note": "[Compound 150]", "values": [{"measurement": "IC50", "setting": "[1]", "value": 8, "unit": "pM"}, {"measurement": "IC50", "setting": "[2]", "value": 1, "unit": "pM"}]}
{"smiles": "COCCOCCOCCNc1cc(COc2cc3c(cc2OC)C(=O)N2c4ccccc4C[C@H]2C=N3)cc(COc2cc3c(cc2OC)C(=O)N2c4ccccc4C[C@H]2CN3)c1", "note": "[Compound 155]", "values": [{"measurement": "IC50", "setting": "[1]", "value": 20, "unit": "pM"}, {"measurement": "IC50", "setting": "[2]", "value": 2, "unit": "pM"}]}
{"smiles": "COc1cc2c(cc1OCCCCCOc1cc3c(cc1OC)C(=O)N1c4ccccc4C[C@H]1CN3)N=C[C@@H]1Cc3ccccc3N1C2=O", "note": "[Compound 162]", "values": [{"measurement": "IC50", "setting": "[1]", "value": 20, "unit": "pM"}, {"measurement": "IC50", "setting": "[2]", "value": 3, "unit": "pM"}]}
{"smiles": "COc1cc2c(cc1OCCCCCOc1cc3c(cc1OC)C(=O)N1c4ccccc4C[C@H]1CN3)N=C[C@@H]1Cc3ccccc3CN1C2=O", "note": "[Compound 123]", "values": [{"measurement": "IC50", "setting": "[1]", "value": 3, "unit": "pM"}, {"measurement": "IC50", "setting": "[2]", "value": 1, "unit": "pM"}]}
{"smiles": "COc1cc2c(cc1OCCCCCOc1cc3c(cc1OC)C(=O)N1Cc4ccccc4C[C@H]1CN3)N=C[C@@H]1Cc3ccccc3N1C2=O", "note": "[Compound 108]", "values": [{"measurement": "IC50", "setting": "[1]", "value": 50, "unit": "pM"}, {"measurement": "IC50", "setting": "[2]", "value": 10, "unit": "pM"}]}
{"smiles": "COc1cc2c(cc1OCc1cccc(COc3cc4c(cc3OC)C(=O)N3c5ccccc5C[C@H]3CN4)n1)N=C[C@@H]1Cc3ccccc3N1C2=O", "note": "[Compound 159]", "values": [{"measurement": "IC50", "setting": "[1]", "value": 3, "unit": "pM"}, {"measurement": "IC50", "setting": "[2]", "value": 1, "unit": "pM"}]}
{"smiles": "C=C1C[C@H]2C=Nc3cc(OCCCOc4cc5c(cc4OC)C(=O)N4CC(=C)C[C@H]4C=N5)c(OC)cc3C(=O)N2C1", "note": "[SJG-136]", "values": [{"measurement": "maximum tolerated dose", "setting": "[3]", "value": 45, "unit": "μg/m^2"}]}
{"smiles": "COc1cc2c(cc1OCCCOc1cc3c(cc1OC)C(=O)N1c4ccccc4C[C@H]1CN3)N=C[C@@H]1Cc3ccccc3N1C2=O", "note": "[Compound 161]", "values": [{"measurement": "IC50", "setting": "[1]", "value": 250, "unit": "pM"}, {"measurement": "IC50", "setting": "[2]", "value": 30, "unit": "pM"}]}
{"smiles": "COC(=O)c1cc(COc2cc3c(cc2OC)C(=O)N2c4ccccc4C[C@H]2C=N3)cc(COc2cc3c(cc2OC)C(=O)N2c4ccccc4C[C@H]2CN3)c1", "note": "[Compound 157]", "values": [{"measurement": "IC50", "setting": "[1]", "value": 3, "unit": "pM"}, {"measurement": "IC50", "setting": "[2]", "value": 1, "unit": "pM"}]}
